From patent publication US5770587A, “Antifungal agents” (Merck & Co., Inc., priority 1996, dated 1998)

Key:
Type in all cases: cell-based
[1] = tested on: Aspergillus fumigatus (MY5668); assay: broth microdilution assay (MIC)
Experimental: (§1) In the microbroth dilution assay, microorganisms were selected by streaking a yeast culture on Sabouraud dextrose agar (SDA) incubating for 24-48 hours at 35°-37° C., thereafter selected 3 to 5 characteristic colonies and transferring to a fresh plate and incubating under similar conditions. From the regrowth, 3 to 5 colonies were selected and suspended in 10 milliliters of YM broth (Difco) and incubated for 4 hours at 35°-37° C. shaking at 225 rpm. The 4 hour broth cultures were adjusted optically to 86% transmission resulting in a concentration of 1-5×10^6 cfu/ml which was further diluted 1:100 in YNBD (yeast nitrogen base with 1 % dextrose) to obtain a concentration of 1-5×10^4 cfu/ml for use as inocula. […]
(§2) The plates containing the diluted compounds were then inoculated with 75 μl/well of the appropriate microorganism and incubated for 48 hours at 35°-37° C. with MIC (minimum inhibitory concentration) determinations carried out after 24 hours of incubation (except Cryptococcus strains which are read at 48 hours). […]
(§3) After recording MICs at 24 hours, the microtiter plates were shaken gently to resuspend the cells. […] For Cryptococcus neoformans, SDA plates were inoculated at 48 hours after recording MICs and incubated 48 hours before reading the MFC. […]

[2] = tested on: Aspergillus fumigatus (MY4839); assay: broth microdilution assay (MIC)
Experimental: as §1, §2, §3

panel of fungi = assay: broth microdilution assay against a panel of fungi, comparison with amphotericin B; settings: MIC and MFC against a panel of fungi
Experimental: as §1, §2, §3

[3] = tested on: Candida guillermondii (MY1019); assay: broth microdilution assay (MIC/MFC)
Experimental: (§4) In the microbroth dilution assay, microorganisms were selected by streaking a yeast culture on Sabouraud dextrose agar (SDA) incubating for 24-48 hours at 35°-37° C., thereafter selected 3 to 5 characteristic colonies and transferring to a fresh plate and incubating under similar conditions. From the regrowth, 3 to 5 colonies were selected and suspended in 10 milliliters of YM broth (Difco) and incubated for 4 hours at 35°-37° C. shaking at 225 rpm. The 4 hour broth cultures were adjusted optically to 86% transmission resulting in a concentration of 1-5×10^6 cfu/ml which was further diluted 1:100 in YNBD (yeast nitrogen base with 1 % dextrose) to obtain a concentration of 1-5×10^4 cfu/ml for use as inocula.
(§5) The test compounds, Compounds I and II, were dissolved at 512 μg/ml in 10% DMSO and diluted 2× into the first well to achieve a concentration of 256 μg/ml at 5% DMSO in the first well. Compounds are subsequently serially diluted 2× and cell suspension is added to each well resulting in an additional 2× dilution of compound. 75 μl of said solution is delivered to each well in column 1 of a 96-well, U-bottomed microtiter plate. The compounds in column 1 were then serially diluted two-fold to yield concentrations from 128 μg/ml to 0.06 μg/ml.
(§6) The plates containing the diluted compounds were then inoculated with 75 μl/well of the appropriate microorganism and incubated for 48 hours at 35°-37° C. with MIC (minimum inhibitory concentration) determinations carried out after 24 hours of incubation (except Cryptococcus strains which are read at 48 hours). Growth and sterility controls for each organism and sterility checks for the compounds also were carried out.
(§7) After recording MICs at 24 hours, the microtiter plates were shaken gently to resuspend the cells. A 1.5 μl sample was transferred from each well of the 96-well microtiter plate to a single reservoir inoculum plate containing SDA. The inoculated SDA and corresponding microtiter plates were incubated for 24 hours at 35°-37° C. For Cryptococcus neoformans, SDA plates were inoculated at 48 hours after recording MICs and incubated 48 hours before reading the MFC. MFC is the lowest concentration of compound at which either no growth or growth of ≤4 colonies occur.

[4] = tested on: Candida pseudotropicalis (MY2099); assay: broth microdilution assay (MIC/MFC)
Experimental: as §4, §5, §6, §7

[5] = tested on: Candida tropicalis (MY1124); assay: broth microdilution assay (MIC/MFC)
Experimental: as §4, §5, §6, §7

Candida albicans (CA2) = assay: broth microdilution assay (MIC/MFC)
Experimental: as §4, §5, §6, §7

[6] = tested on: Candida parapsilosis (MY1010); assay: broth microdilution assay (MIC/MFC); settings: 24 h, 35-37° C.
Experimental: as §4, §5, §6, §7

[7] = tested on: Candida glabrata (MY1381); assay: broth microdilution assay (MIC/MFC)
Experimental: as §4, §5, §6, §7

[8] = tested on: Candida albicans (CLY539); assay: broth microdilution assay (MIC/MFC)
Experimental: as §4, §5, §6, §7

[9] = tested on: Candida albicans (MY1055); assay: broth microdilution assay (MIC/MFC)
Experimental: as §4, §5, §6, §7

[10] = tested on: Cryptococcus neoformans (MY2061); assay: broth microdilution assay (MIC/MFC)
Experimental: as §4, §5, §6, §7

[11] = tested on: Cryptococcus neoformans (MY2062); assay: broth microdilution assay (MIC/MFC)
Experimental: as §4, §5, §6, §7

[12] = tested on: Saccharomyces cerevisiae (MY2140); assay: broth microdilution assay (MIC/MFC)
Experimental: as §4, §5, §6, §7

[13] = tested on: Candida tropicalis (MY1012); assay: broth microdilution assay (MIC/MFC)
Experimental: as §4, §5, §6, §7

[14] = tested on: Saccharomyces cerevisiae (MY2141); assay: broth microdilution assay (MIC/MFC)
Experimental: as §4, §5, §6, §7

[15] = tested on: Aspergillus flavus, Fusarium oxysporum, Ustilago zeae and the like; assay: agar plate inhibition zone test, filamentous fungi; settings: agar plates, 28° C. or 37° C., 24 hours, inhibition zones
[16] = SDA incubated 48 h, no growth or ≤4 colonies

CC(C)C1CCC2C1(C)CCC1(C)C3=CCC4C(C)(C(=O)O)C(O)C(O)C(O)C4(C(=O)O)C3CCC21C (centres unmarked) [Compound II]
Minimum Inhibitory Concentration (MIC) [1]: > 128 mg/L | Minimum Inhibitory Concentration (MIC) [2]: 8 mg/L | effective concentrations compared with amphotericin B (panel of fungi): effective at concentrations comparable to an established antifungal agent, amphotericin B | Minimum Inhibitory Concentration (MIC) ([3]; 24 h, 35-37° C.): > 128 mg/L | Minimum Fungicidal Concentration (MFC) ([3]; no growth or ≤4 colonies): > 128 mg/L | Minimum Inhibitory Concentration (MIC) ([4]; 24 h, 35-37° C.): 4 mg/L | Minimum Fungicidal Concentration (MFC) ([4]; no growth or ≤4 colonies): 4 mg/L | Minimum Inhibitory Concentration (MIC) ([5]; 24 h, 35-37° C.): 8 mg/L | Minimum Fungicidal Concentration (MFC) ([5]; no growth or ≤4 colonies): 8 mg/L | Minimum Inhibitory Concentration (MIC) (Candida albicans (CA2); 24 h, 35-37° C.): 8 mg/L | Minimum Fungicidal Concentration (MFC) (Candida albicans (CA2); no growth or ≤4 colonies): 8 mg/L | Minimum Inhibitory Concentration (MIC) [6]: 32 mg/L | Minimum Inhibitory Concentration (MIC) ([7]; 24 h, 35-37° C.): 8 mg/L | Minimum Fungicidal Concentration (MFC) ([7]; no growth or ≤4 colonies): 8 mg/L | Minimum Inhibitory Concentration (MIC) ([8]; 24 h, 35-37° C.): 8 mg/L | Minimum Fungicidal Concentration (MFC) ([8]; no growth or ≤4 colonies): 8 mg/L | Minimum Inhibitory Concentration (MIC) ([9]; 24 h, 35-37° C.): 8 mg/L | Minimum Fungicidal Concentration (MFC) ([9]; no growth or ≤4 colonies): 8 mg/L | Minimum Fungicidal Concentration (MFC) [10, 16]: 4 mg/L | Minimum Inhibitory Concentration (MIC) ([10]; read at 48 h, 35-37° C.): 4 mg/L | Minimum Fungicidal Concentration (MFC) [11, 16]: 4 mg/L | Minimum Inhibitory Concentration (MIC) ([11]; read at 48 h, 35-37° C.): 4 mg/L | Minimum Inhibitory Concentration (MIC) ([12]; 24 h, 35-37° C.): 4 mg/L | Minimum Fungicidal Concentration (MFC) ([12]; no growth or ≤4 colonies): 4 mg/L | Minimum Inhibitory Concentration (MIC) ([13]; 24 h, 35-37° C.): 4 mg/L | Minimum Fungicidal Concentration (MFC) ([13]; no growth or ≤4 colonies): 8 mg/L | Minimum Inhibitory Concentration (MIC) ([14]; 24 h, 35-37° C.): 4 mg/L | Minimum Fungicidal Concentration (MFC) ([14]; no growth or ≤4 colonies): 4 mg/L | inhibition of growth of filamentous fungi [15]: effectively inhibit growth of the fungal organisms
